Peptide text beside a SMILES is read from it.
How the values were obtained:
Mouse erythrocytes = test: Hemolytic test, mouse erythrocytes; assay type: cell-based; conditions: mouse erythrocytes in PBS, 1 h, absorbance 550 nm; no death at 10 µM; 3 independent experiments in triplicate
Experimental: (§1) Blood from a mouse or healthy adult donor was centrifuged at 800 × g for 10 minutes at 4°C. The pellet containing red blood cells was then washed three times in 10 volumes of PBS and was diluted in 4% (v/v) in PBS. Blood and peptides at different concentrations were then incubated at 37°C for one hour. Cells were centrifuged 1500 × g for 5 minutes at room temperature. Hemolysis was measured in the supernatant at 550 nm. Red blood cells lysed with 1% Triton X-100 was used as a control, achieving 100% hemolysis. Percent hemolysis was calculated using the following formula: % hemolysis = 100% × [(A − A0)/(At − A0)], where A represents the absorbance of the peptide sample at 550 nm and A0 and At represent 0% and 100% hemolysis determined in 10 mM PBS and 0.1% Triton X-100, respectively.

A549 cells = test: A549 viability, CCK8 assay; assay type: cell-based, human; conditions: A549, 1 h, 37°C, duplicate, no death at 10 µM
From the text: (§2) Human leukocytes were provided by the « Banco de Sangre del Hospital Regional del IMSS » and the Centro Estatal de la Transfusión Sanguínea in Cuernavaca, Morelos, Mexico. Institutional committees approved the acquisition and isolation of human peripheral blood leukocytes. Human leukocytes and erythrocytes were obtained as previously described. Mouse bone marrow cells (MBMCs) and erythrocytes were obtained from C57BL/6 or Balb/c mice. Mouse epithelial cells were isolated from C57Bl/6 mice, and human epithelial cells were recovered from surgery residues. In brief, intestinal tissues were minced and digested in 450-U/mL collagenase I, 125-U/mL collagenase XI, 60-U/mL hyaluronidase, and 60-U/mL DNAse for 1 hour before gradient density centrifugation on Histopaque-1083 (Sigma-Aldrich, St. Louis, MO). A549 cells (ATCC CCL-185), a human lung carcinoma cell line, were cultivated at 37°C in a humid atmosphere and 5% CO2, with DMEM advanced medium (Gibco®) supplemented with 5% of fetal bovine serum (FBS), 2 mM of glutamine, 100 U of penicillin, and 50 μg/mL of streptomycin (Gibco®). Jurkat E6-1 cells were cultured in an RPMI medium supplemented with 5% fetal bovine serum.
For the cell line A549, viability was assessed by the CCK8 assay (DoJindo) as indicated by the manufacturer. […] The absorbance at 450 nm was measured after 3 h incubation.

[1] = tested on: Mouse primary epithelial cells; test: Cytotoxic assay on mouse primary epithelial cells; assay type: cell-based; conditions: 2 h, 37°C, flow cytometry, no death at 10 µM
From the text: as §2, with “A549 cells (ATCC CCL-185), a human lung carcinoma cell line, were cultivated at 37°C in a humid atmosphere and 5% CO2, with DMEM advanced medium (Gibco®) supplemented with 5% of fetal bovine serum (FBS), 2 mM of glutamine, 100 U of penicillin, and 50 μg/mL of streptomycin (Gibco®). Jurkat E6-1 cells were cultured in an RPMI medium supplemented with 5% fetal bovine serum.” left out
(§3) 5.10^5 mouse or human leukocytes or primary epithelial cells, A549 or Jurkat E6-1 cells, were incubated in 100 µl RPMI or DMEM containing 0.5% BSA and […] with the peptides at different concentrations for 2 hours at 37°C, 5% CO2. […] Viability of leukocytes and Jurkat cells was determined by adding a viability dye (eFluor 780) and counted by FacsCanto flow cytometry with a predetermined number of beads (Polybead, Carboxylate Microspheres, Polysciences, Inc., Le Perray-en-Yvelines, France) added to the samples. […] Data were analyzed with FlowJo.

[2] = tested on: Human primary epithelial cells; test: Cytotoxic assay on human primary epithelial cells; assay type: cell-based; conditions: 2 h, 37°C, flow cytometry, no death at 10 µM
From the text: as §2, with “A549 cells (ATCC CCL-185), a human lung carcinoma cell line, were cultivated at 37°C in a humid atmosphere and 5% CO2, with DMEM advanced medium (Gibco®) supplemented with 5% of fetal bovine serum (FBS), 2 mM of glutamine, 100 U of penicillin, and 50 μg/mL of streptomycin (Gibco®). Jurkat E6-1 cells were cultured in an RPMI medium supplemented with 5% fetal bovine serum.” left out
as §3

Human erythrocytes = test: Hemolytic test, human erythrocytes; assay type: cell-based; conditions: human erythrocytes in PBS, 1 h, 37°C, absorbance 550 nm; no death at 10 µM; 3 independent experiments in triplicate
Experimental: as §1

[3] = In vitro peptide stability in rat serum, RP-HPLC; assay type: in vitro ADME; conditions: 37°C, 300 µM peptide; for degradation of the peptide: RPMI with 25% (v/v) rat serum
Experimental: (§4) One mL of RPMI supplemented with 25% (v/v) rat serum was equilibrated at 37°C for 15 min before adding the peptide (final concentration of 300 µM). At different time points, 300 µL of the reaction solution was removed and completed to 600 µL with 96% ethanol. The sample was cooled at 4°C for 15 min and then spun to precipitate serum proteins. The supernatant was recovered and submitted to the viability assay as described in the cytotoxic assay section or analyzed by RP-HPLC on C18–300 100 × 4, 6 mm. A linear gradient from 100% buffer A (0.1% TFA in H20) to 60% of buffer B (0.1% TFA in ACN) was used over 10 min with a flow rate of 1 mL/min. The absorbance was detected at both 220 nm and 280 nm.

mouse bone marrow cells = test: Cytotoxic activity of peptide recovered after serum incubation; assay type: cell-based; conditions: then 5 µM on mouse bone marrow cells for 2 h
Experimental: 5.10^5 mouse or human leukocytes or primary epithelial cells, A549 or Jurkat E6-1 cells, were incubated in 100 µl RPMI or DMEM containing 0.5% BSA and […] with the peptides at different concentrations for 2 hours at 37°C, 5% CO2. Incubation of the cells with DMSO 30% was used as a positive control. For the kinetic assay, the cells were incubated with the peptides for different time periods. Viability of leukocytes and Jurkat cells was determined by adding a viability dye (eFluor 780) and counted by FacsCanto flow cytometry with a predetermined number of beads (Polybead, Carboxylate Microspheres, Polysciences, Inc., Le Perray-en-Yvelines, France) added to the samples. Mouse leukocytes were stained with anti-mouse Ly6G-PE, anti-mouse NK1.1-PE, anti-mouse CD11b-PerCP, and anti-mouse F4/80-APC (BD Biosciences, Rungis, France). Human leukocytes were stained with anti-human CD45-PB, anti-human CD16-PE-Cy7, anti-human CD56-PE-Cy7, anti-human CD14-FITC, anti-human CD3V500, anti-human CD8-APC, and anti-human CD4-PE. Data were analyzed with FlowJo.
as §4

Row | SMILES | toxicity for erythrocytes (hemolysis) (Mouse erythrocytes) | toxicity for A549 cells (A549 cells) | toxicity for primary epithelial cells [1] | toxicity for primary epithelial cells [2] | Trp λmax in aqueous buffer | toxicity for erythrocytes (hemolysis) (Human erythrocytes) | time of resistance to enzymatic degradation ([3]; rat serum, title of Figure 7) | percentage of dead cells versus t0 peptide (mouse bone marrow cells; peptide (300 µM) pre-incubated with serum 15 min (t15), flow cytometry) | percentage of dead cells versus t0 peptide (mouse bone marrow cells; peptide pre-incubated with serum 30 min (t30)) | induction of cell death (mouse bone marrow cells; peptide pre-incubated with serum 24 h (t24)) | degradation of the peptide ([3]; 24 h, RP-HPLC, UV 220 nm) | degradation of the peptide ([3]; after 30 min, RP-HPLC C18, UV 220 nm, intact peak area vs sum of all peptide areas, n = 3 independent experiments)
1 | CSCC[C@H](NC(=O)[C@H](CC(N)=O)NC(=O)[C@@H](NC(=O)[C@@H](NC(=O)[C@H](C)NC(=O)[C@H](CC(N)=O)NC(=O)[C@H](CC(C)C)NC(=O)[C@@H](NC(=O)[C@H](C)NC(=O)[C@H](CCCCN)NC(=O)CNC(=O)[C@H](C)NC(=O)[C@@H](NC(=O)[C@H](CCCCN)NC(=O)CNC(=O)[C@@H](NC(=O)[C@H](CCCCN)NC(=O)[C@H](CCCCN)NC(=O)[C@H](CC(C)C)NC(=O)[C@H](CC(C)C)NC(=O)[C@@H](NC(=O)[C@H](CCCCN)NC(=O)[C@H](Cc1c[nH]c2ccccc12)NC(=O)[C@H](CC(C)C)NC(=O)[C@H](C)N)[C@@H](C)O)C(C)C)C(C)C)C(C)C)C(C)C)[C@@H](C)O)C(=O)N[C@@H](C)C(=O)N[C@@H](CC(N)=O)C(=O)N[C@@H](CCC(N)=O)C(=O)N[C@@H](CC(N)=O)C(=O)N[C@@H](CCC(=O)O)C(=O)N[C@@H](CCC(N)=O)C(=O)O [DRS-DA2NEQ] (H-ALWKTLLKKVGKVAGKAVLNAVTNMANQNEQ-OH) | not toxic | not toxic | not toxic | not toxic | 355 nm | not toxic | 15 min |  |  |  |  | 
2 | CSCC[C@H](NC(=O)[C@H](CC(N)=O)NC(=O)[C@@H](NC(=O)[C@@H](NC(=O)[C@H](C)NC(=O)[C@H](CC(N)=O)NC(=O)[C@H](CC(C)C)NC(=O)[C@@H](NC(=O)[C@H](C)NC(=O)[C@H](CCCCN)NC(=O)CNC(=O)[C@H](C)NC(=O)[C@@H](NC(=O)[C@H](CCCCN)NC(=O)CNC(=O)[C@@H](NC(=O)[C@H](CCCCN)NC(=O)[C@H](CCCCN)NC(=O)[C@H](CC(C)C)NC(=O)[C@H](CC(C)C)NC(=O)[C@@H](NC(=O)[C@H](CCCCN)NC(=O)[C@H](Cc1c[nH]c2ccccc12)NC(=O)[C@H](CC(C)C)NC(=O)[C@H](C)N)[C@@H](C)O)C(C)C)C(C)C)C(C)C)C(C)C)[C@@H](C)O)C(=O)N[C@@H](C)C(=O)N[C@@H](CC(N)=O)C(=O)N[C@@H](CCC(N)=O)C(=O)N[C@@H](CC(N)=O)C(=O)O [DRS-DA2N] (H-ALWKTLLKKVGKVAGKAVLNAVTNMANQN-OH) | not toxic | not toxic | not toxic | not toxic | 355 nm | not toxic |  | no significant differences | started to decrease | almost completely abolished | totally degraded | 40%
